Columns and labels:
Assay type in all cases: in vivo
[1] = system: rice (Oryza saliva); assay: Test C flooded paddy test; conditions: for Rice plant response rating: Flooded Paddy, scale 0 to 100, 0 no effect, 100 complete control; for Plant response rating, Rice: flooded paddy test, scale 0 to 100 (0 no effect, 100 complete control)
Experimental: (§1) At the same time, plants selected from these crop and weed species and also winter barley (Hordeum vulgare), blackgrass (Alopecurus myosuroides), canary grass (Phalaris minor), chickweed (Stellaria media), downy brome (Bromus tectorum), green foxtail (Setaria viridis), Italian ryegrass (Lolium multiflorum), wheat (Triticum aestivum), wild oat (Avena fatua) and windgrass (Apera spica-venti) were treated with postemergence applications of some of the test chemicals formulated in the same manner. Plants ranged in height from 2 to 18 cm (1- to 4-leaf stage) for postemergence treatments. Plant species in the flooded paddy test consisted of rice (Oryza saliva), smallflower flatsedge (Cyperus difformis), duck salad (Heteranthera limosa) and barnyardgrass (Echinochloa crus-galli) grown to the 2-leaf stage for testing. Treated plants and controls were maintained in a greenhouse for 12 to 14 days, after which time all species were compared to controls and visually evaluated. Plant response ratings, summarized in Table C, are based on a scale of 0 to 100 where 0 is no effect and 100 is complete control. A dash (-) response means no test result.

[2] = system: barnyardgrass (Echinochloa crus-galli); assay: Test C flooded paddy test; conditions: for Barnyardgrass plant response rating: Flooded Paddy, scale 0 to 100, 0 no effect, 100 complete control; for Plant response rating, Barnyardgrass: flooded paddy test, scale 0 to 100 (0 no effect, 100 complete control)
Experimental: as §1

[3] = system: duck salad (Heteranthera limosa); assay: Test C flooded paddy test; conditions: for Ducksalad plant response rating: Flooded Paddy, scale 0 to 100, 0 no effect, 100 complete control; for Plant response rating, Ducksalad: flooded paddy test, scale 0 to 100 (0 no effect, 100 complete control)
Experimental: as §1

[4] = system: smallflower flatsedge (Cyperus difformis); assay: Test C flooded paddy test; conditions: for Flatsedge plant response rating: Flooded Paddy, scale 0 to 100, 0 no effect, 100 complete control; for Plant response rating, Flatsedge: flooded paddy test, scale 0 to 100 (0 no effect, 100 complete control)
Experimental: as §1

[5] = system: lambsquarters (Chenopodium album); assay: Test B preemergence
Text: (§2) Seeds selected from barnyardgrass (Echinochloa crus-galli), Surinam grass (Brachiaria decumbens), cocklebur (Xanthium strumarium), corn (Zea mays), crabgrass (Digitaria sanguinalis), giant foxtail (Setaria faberii), lambsquarters (Chenopodium album), morning glory (Ipomoea hederacea), pigweed (Amaranthus retroflexus), rice (Oryza saliva) and velvetleaf (Abutilon theophrasti) were planted and treated preemergence with test chemicals formulated in a non-phytotoxic solvent mixture which included a surfactant.
(§3) At the same time, plants selected from these crop and weed species and also blackgrass (Alopecurus myosuroides), wheat (Triticum aestivum) and wild oat (Avena fatua) were treated with postemergence applications of test chemicals formulated in the same manner. Plants ranged in height from 2 to 18 cm (1- to 4-leaf stage) for postemergence treatments. Plant species in the flooded paddy test consisted of rice (Oryza saliva), smallflower flatsedge (Cyperus difformis), duck salad (Heteranthera limosa) and barnyardgrass (Echinochloa crus-galli) grown to the 2-leaf stage for testing. Treated plants and controls were maintained in a greenhouse for 13 to 15 days, after which time all species were compared to controls and visually evaluated. Plant response ratings, summarized in Table B, are based on a scale of 0 to 100 where 0 is no effect and 100 is complete control. A dash (-) response means no test result.

[6] = system: velvetleaf (Abutilon theophrasti); assay: Test B preemergence
Text: as §2, §3

[7] = system: Surinam grass (Brachiaria decumbens); assay: Test B preemergence
Text: as §2, §3

[8] = system: morning glory (Ipomoea hederacea); assay: Test B preemergence
Text: as §2, §3

[9] = system: rice (Oryza saliva); assay: Test B preemergence
Text: as §2, §3

[10] = system: cocklebur (Xanthium strumarium); assay: Test B preemergence
Text: as §2, §3

[11] = system: barnyardgrass (Echinochloa crus-galli); assay: Test B preemergence
Text: as §2, §3

[12] = system: pigweed (Amaranthus retroflexus); assay: Test B preemergence
Text: as §2, §3

[13] = system: corn (Zea mays); assay: Test B preemergence
Text: as §2, §3

[14] = system: giant foxtail (Setaria faberii); assay: Test B preemergence
Text: as §2, §3

[15] = system: crabgrass (Digitaria sanguinalis); assay: Test B preemergence
Text: as §2, §3

[16] = system: wild oat (Avena fatua); assay: Test B postemergence; conditions: Rate 500 g/ha, scale 0 to 100, 0 is no effect, 100 is complete control, 13 to 15 days
Text: as §2, §3

[17] = system: wheat (Triticum aestivum); assay: Test B postemergence; conditions: Rate 500 g/ha, scale 0 to 100, 0 is no effect, 100 is complete control, 13 to 15 days
Text: as §2, §3

[18] = system: lambsquarters (Chenopodium album); assay: Test B postemergence; conditions: Rate 500 g/ha, scale 0 to 100, 0 is no effect, 100 is complete control, 13 to 15 days
Text: as §2, §3

[19] = system: velvetleaf (Abutilon theophrasti); assay: Test B postemergence; conditions: Rate 500 g/ha, scale 0 to 100, 0 is no effect, 100 is complete control, 13 to 15 days
Text: as §2, §3

[20] = system: Surinam grass (Brachiaria decumbens); assay: Test B postemergence; conditions: 13 to 15 days
Text: as §2, §3

[21] = system: morning glory (Ipomoea hederacea); assay: Test B postemergence; conditions: Rate 500 g/ha, scale 0 to 100, 0 is no effect, 100 is complete control, 13 to 15 days
Text: as §2, §3

[22] = system: blackgrass (Alopecurus myosuroides); assay: Test B postemergence; conditions: 13 to 15 days
Text: as §2, §3

[23] = system: barnyardgrass (Echinochloa crus-galli); assay: Test B postemergence; conditions: 13 to 15 days
Text: as §2, §3

[24] = system: pigweed (Amaranthus retroflexus); assay: Test B postemergence; conditions: Rate 500 g/ha, scale 0 to 100, 0 is no effect, 100 is complete control, 13 to 15 days
Text: as §2, §3

[25] = system: corn (Zea mays); assay: Test B postemergence; conditions: 13 to 15 days
Text: as §2, §3

[26] = system: giant foxtail (Setaria faberii); assay: Test B postemergence; conditions: 13 to 15 days
Text: as §2, §3

[27] = system: crabgrass (Digitaria sanguinalis); assay: Test B postemergence; conditions: 13 to 15 days
Text: as §2, §3

[28] = Preemergence, Rate 500 g/ha, scale 0 to 100, 0 no effect, 100 complete control
[29] = preemergence, Rate 125 g/ha, scale of 0 to 100 where 0 is no effect and 100 is complete control, 13 to 15 days
[30] = Rate 125 g/ha, scale 0 (no effect) to 100 (complete control)
[31] = Rate 500 g/ha, scale 0 to 100, 0 is no effect, 100 is complete control

CC(C)(C)c1ccn(C2CCN(c3cccc(S(C)(=O)=O)c3)C2=O)n1 (stereo not drawn) [Compound 102]
Rice plant response rating ([1]; Rate 250 g/ha): 0
Rice plant response rating ([1]; Rate 500 g/ha): 0
Plant response rating, Rice ([1]; Rate 62 g/ha): 0
Plant response rating, Rice ([1]; Rate 125 g/ha): 0
Barnyardgrass plant response rating ([2]; Rate 250 g/ha): 0
Barnyardgrass plant response rating ([2]; Rate 500 g/ha): 0
Plant response rating, Barnyardgrass ([2]; Rate 62 g/ha): 0
Plant response rating, Barnyardgrass ([2]; Rate 125 g/ha): 0
Ducksalad plant response rating ([3]; Rate 250 g/ha): 0
Ducksalad plant response rating ([3]; Rate 500 g/ha): 0
Plant response rating, Ducksalad ([3]; Rate 62 g/ha): 0
Plant response rating, Ducksalad ([3]; Rate 125 g/ha): 0
Flatsedge plant response rating ([4]; Rate 250 g/ha): 30
Flatsedge plant response rating ([4]; Rate 500 g/ha): 60
Plant response rating, Flatsedge ([4]; Rate 62 g/ha): 0
Plant response rating, Flatsedge ([4]; Rate 125 g/ha): 30
Plant response rating, Lambsquarters [5, 28]: 0
Plant response rating, Lambsquarters [5, 29]: 0
Plant response rating, Velvetleaf [6, 28]: 0
Plant response rating, Velvetleaf [6, 29]: 0
Plant response rating, Surinam grass [7, 28]: 0
Plant response rating, Surinam grass [7, 29]: 0
Plant response rating, Morningglory [8, 28]: 0
Plant response rating, Morningglory [8, 29]: 0
Plant response rating, Rice [9, 28]: 0
Plant response rating, Rice [9, 29]: 0
Plant response rating, Cocklebur [10, 28]: 0
Plant response rating, Cocklebur [10, 29]: 0
Plant response rating, Barnyardgrass [11, 28]: 0
Plant response rating, Barnyardgrass [11, 29]: 0
Plant response rating, Pigweed [12, 28]: 0
Plant response rating, Pigweed [12, 29]: 0
Plant response rating, Corn [13, 28]: 0
Plant response rating, Corn [13, 29]: 0
Plant response rating, Foxtail, Giant [14, 28]: 0
Plant response rating, Foxtail, Giant [14, 29]: 0
Plant response rating, Crabgrass [15, 28]: 90
Plant response rating, Crabgrass [15, 29]: 0
Plant response rating, Wild Oat [16]: 0
Plant response rating, Wheat [17]: 0
Plant response rating, Lambsquarters [18]: 0
Plant response rating, Velvetleaf [19]: 0
Plant response rating, Surinam grass [20, 30]: 0
Plant response rating, Surinam grass [20, 31]: 0
Plant response rating, Morningglory [21]: 0
Plant response rating, Blackgrass [22, 30]: 0
Plant response rating, Blackgrass [22, 31]: 0
Plant response rating, Barnyardgrass [23, 30]: 0
Plant response rating, Barnyardgrass [23, 31]: 0
Plant response rating, Pigweed [24]: 0
Plant response rating, Corn [25, 30]: 0
Plant response rating, Corn [25, 31]: 0
Plant response rating, Foxtail, Giant [26, 30]: 0
Plant response rating, Foxtail, Giant [26, 31]: 0
Plant response rating, Crabgrass [27, 30]: 0
Plant response rating, Crabgrass [27, 31]: 0

CCCCC(C)c1ccn(C2SCN(c3cccc(C(F)(F)F)c3)C2=O)n1 (stereo not drawn) [Compound 103]
Rice plant response rating ([1]; Rate 250 g/ha): 20
Rice plant response rating ([1]; Rate 500 g/ha): 20
Plant response rating, Rice ([1]; Rate 62 g/ha): 0
Barnyardgrass plant response rating ([2]; Rate 250 g/ha): 20
Barnyardgrass plant response rating ([2]; Rate 500 g/ha): 40
Plant response rating, Barnyardgrass ([2]; Rate 62 g/ha): 0
Plant response rating, Barnyardgrass ([2]; Rate 125 g/ha): 0
Ducksalad plant response rating ([3]; Rate 250 g/ha): 0
Ducksalad plant response rating ([3]; Rate 500 g/ha): 90
Plant response rating, Ducksalad ([3]; Rate 62 g/ha): 0
Plant response rating, Ducksalad ([3]; Rate 125 g/ha): 0
Flatsedge plant response rating ([4]; Rate 250 g/ha): 100
Flatsedge plant response rating ([4]; Rate 500 g/ha): 100
Plant response rating, Flatsedge ([4]; Rate 62 g/ha): 0
Plant response rating, Flatsedge ([4]; Rate 125 g/ha): 80
Plant response rating, Lambsquarters [5, 28]: 100
Plant response rating, Lambsquarters [5, 29]: 100
Plant response rating, Velvetleaf [6, 28]: 0
Plant response rating, Velvetleaf [6, 29]: 0
Plant response rating, Surinam grass [7, 28]: 0
Plant response rating, Surinam grass [7, 29]: 0
Plant response rating, Morningglory [8, 28]: 0
Plant response rating, Morningglory [8, 29]: 0
Plant response rating, Rice [9, 28]: 0
Plant response rating, Rice [9, 29]: 0
Plant response rating, Cocklebur [10, 28]: 0
Plant response rating, Cocklebur [10, 29]: 0
Plant response rating, Barnyardgrass [11, 28]: 0
Plant response rating, Barnyardgrass [11, 29]: 0
Plant response rating, Pigweed [12, 28]: 0
Plant response rating, Pigweed [12, 29]: 0
Plant response rating, Corn [13, 28]: 0
Plant response rating, Corn [13, 29]: 0
Plant response rating, Foxtail, Giant [14, 28]: 0
Plant response rating, Foxtail, Giant [14, 29]: 0
Plant response rating, Crabgrass [15, 28]: 60
Plant response rating, Crabgrass [15, 29]: 0
Plant response rating, Wild Oat [16]: 0
Plant response rating, Wheat [17]: 0
Plant response rating, Lambsquarters [18]: 50
Plant response rating, Velvetleaf [19]: 0
Plant response rating, Surinam grass [20, 30]: 0
Plant response rating, Surinam grass [20, 31]: 0
Plant response rating, Morningglory [21]: 0
Plant response rating, Blackgrass [22, 30]: 0
Plant response rating, Blackgrass [22, 31]: 0
Plant response rating, Barnyardgrass [23, 30]: 0
Plant response rating, Barnyardgrass [23, 31]: 0
Plant response rating, Pigweed [24]: 0
Plant response rating, Corn [25, 30]: 0
Plant response rating, Corn [25, 31]: 0
Plant response rating, Foxtail, Giant [26, 30]: 0
Plant response rating, Foxtail, Giant [26, 31]: 0
Plant response rating, Crabgrass [27, 30]: 0
Plant response rating, Crabgrass [27, 31]: 0

Source: patent publication US7138361B2, “Herbicidal heterocycles” (E. I. du Pont de Nemours and Company, priority 2000, dated 2006)
